# Experiments:
# Test in all cases: KINOMEscan competition binding
# Conditions in all cases: compound 10.0 µM
# [1] = biological target: AAK1 (human) (UniProt Q2M2I8)
# [2] = biological target: AXL (human) (UniProt P30530)
# [3] = biological target: CAMK1G (human) (UniProt Q96NX5)
# [4] = biological target: CAMK2A (human) (UniProt Q9UQM7)
# [5] = biological target: CAMK2B (human) (UniProt Q13554)
# [6] = biological target: CDKL2 (human) (UniProt Q92772)
# [7] = biological target: CHEK2 (human) (UniProt O96017)
# [8] = biological target: CIT (human) (UniProt O14578)
# [9] = biological target: CSK (human) (UniProt P41240)
# [10] = biological target: DAPK2 (human) (UniProt Q9UIK4)
# Chain of DAPK2 (human) (Q9UIK4 whole entry, looked up): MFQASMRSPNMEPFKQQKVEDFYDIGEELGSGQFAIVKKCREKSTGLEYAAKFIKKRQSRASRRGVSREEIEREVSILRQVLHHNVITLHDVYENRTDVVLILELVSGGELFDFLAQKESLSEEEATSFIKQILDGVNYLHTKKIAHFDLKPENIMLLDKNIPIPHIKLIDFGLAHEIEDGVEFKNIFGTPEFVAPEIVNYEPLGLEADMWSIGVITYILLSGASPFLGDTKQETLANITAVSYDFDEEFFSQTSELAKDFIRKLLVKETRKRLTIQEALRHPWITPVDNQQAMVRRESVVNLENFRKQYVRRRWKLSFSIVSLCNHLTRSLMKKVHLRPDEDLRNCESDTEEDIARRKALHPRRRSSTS
# [11] = biological target: DCLK1 (human) (UniProt O15075)
# [12] = biological target: FGFR4 (human) (UniProt P22455)
# [13] = biological target: FLT3 (human) (UniProt P36888)
# [14] = biological target: GAK (human) (UniProt O14976)
# Chain of GAK (human) (O14976 whole entry, looked up): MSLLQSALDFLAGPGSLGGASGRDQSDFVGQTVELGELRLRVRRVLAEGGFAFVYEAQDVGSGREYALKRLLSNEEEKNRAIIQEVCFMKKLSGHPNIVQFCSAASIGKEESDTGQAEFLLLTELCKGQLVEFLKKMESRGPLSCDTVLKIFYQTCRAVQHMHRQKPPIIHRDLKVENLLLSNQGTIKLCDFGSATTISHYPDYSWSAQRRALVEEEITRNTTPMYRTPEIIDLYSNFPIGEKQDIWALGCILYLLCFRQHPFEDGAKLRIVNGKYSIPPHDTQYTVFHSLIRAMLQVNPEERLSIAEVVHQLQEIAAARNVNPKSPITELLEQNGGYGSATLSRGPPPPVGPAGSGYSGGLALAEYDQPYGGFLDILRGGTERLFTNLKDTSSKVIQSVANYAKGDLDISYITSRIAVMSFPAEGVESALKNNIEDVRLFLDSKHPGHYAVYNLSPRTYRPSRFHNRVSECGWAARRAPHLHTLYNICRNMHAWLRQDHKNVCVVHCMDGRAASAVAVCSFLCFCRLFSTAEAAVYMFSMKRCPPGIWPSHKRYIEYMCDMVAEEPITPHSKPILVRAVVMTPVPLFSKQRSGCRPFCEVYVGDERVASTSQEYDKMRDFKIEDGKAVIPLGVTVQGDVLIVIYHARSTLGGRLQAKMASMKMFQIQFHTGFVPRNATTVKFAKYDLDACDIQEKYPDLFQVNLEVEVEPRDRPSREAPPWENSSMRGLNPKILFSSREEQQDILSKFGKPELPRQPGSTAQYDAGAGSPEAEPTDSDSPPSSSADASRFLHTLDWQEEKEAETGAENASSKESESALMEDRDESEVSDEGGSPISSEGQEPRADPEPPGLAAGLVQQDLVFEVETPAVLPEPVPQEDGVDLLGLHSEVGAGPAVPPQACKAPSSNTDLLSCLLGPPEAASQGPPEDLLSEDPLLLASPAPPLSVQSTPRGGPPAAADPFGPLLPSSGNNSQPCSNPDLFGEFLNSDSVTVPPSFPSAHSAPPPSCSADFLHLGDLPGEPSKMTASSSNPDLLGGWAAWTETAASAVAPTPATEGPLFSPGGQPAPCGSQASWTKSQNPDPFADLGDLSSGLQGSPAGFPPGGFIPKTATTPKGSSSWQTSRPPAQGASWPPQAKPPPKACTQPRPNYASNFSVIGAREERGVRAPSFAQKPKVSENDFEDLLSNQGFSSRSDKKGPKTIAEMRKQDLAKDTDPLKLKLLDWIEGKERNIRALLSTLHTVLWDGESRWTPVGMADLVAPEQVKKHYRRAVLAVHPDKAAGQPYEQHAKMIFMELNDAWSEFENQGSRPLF
# [15] = biological target: GRK7 (human) (UniProt Q8WTQ7)
# [16] = biological target: GSK3B (human) (UniProt P49841)
# [17] = biological target: HIPK1 (human) (UniProt Q86Z02)
# [18] = biological target: HIPK4 (human) (UniProt Q8NE63)
# [19] = biological target: IKBKE (human) (UniProt Q14164)
# Chain of IKBKE (human) (Q14164 whole entry, looked up): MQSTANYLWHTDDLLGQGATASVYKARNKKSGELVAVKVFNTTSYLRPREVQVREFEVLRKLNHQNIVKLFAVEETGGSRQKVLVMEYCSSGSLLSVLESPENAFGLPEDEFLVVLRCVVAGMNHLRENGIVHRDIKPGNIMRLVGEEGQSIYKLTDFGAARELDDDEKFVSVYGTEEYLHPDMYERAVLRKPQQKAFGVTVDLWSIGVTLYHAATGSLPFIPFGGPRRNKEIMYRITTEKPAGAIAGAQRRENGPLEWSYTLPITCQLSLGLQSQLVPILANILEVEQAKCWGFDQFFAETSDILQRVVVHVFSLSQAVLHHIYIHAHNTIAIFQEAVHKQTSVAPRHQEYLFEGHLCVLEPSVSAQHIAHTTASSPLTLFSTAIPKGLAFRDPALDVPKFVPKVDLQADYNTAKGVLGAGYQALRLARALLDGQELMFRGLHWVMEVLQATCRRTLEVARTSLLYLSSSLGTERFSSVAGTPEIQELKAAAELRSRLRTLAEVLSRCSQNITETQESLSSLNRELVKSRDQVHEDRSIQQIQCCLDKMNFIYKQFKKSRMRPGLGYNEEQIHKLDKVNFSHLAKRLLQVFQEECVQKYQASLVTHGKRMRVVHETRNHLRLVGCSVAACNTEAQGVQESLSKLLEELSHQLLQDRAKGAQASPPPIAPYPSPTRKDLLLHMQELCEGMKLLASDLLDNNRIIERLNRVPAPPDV
# [20] = biological target: INSRR (human) (UniProt P14616)
# [21] = biological target: JAK1 JH1 catalytic (human) (UniProt P23458)
# Chain of JAK1 JH1 catalytic (human) (P23458 whole entry, looked up): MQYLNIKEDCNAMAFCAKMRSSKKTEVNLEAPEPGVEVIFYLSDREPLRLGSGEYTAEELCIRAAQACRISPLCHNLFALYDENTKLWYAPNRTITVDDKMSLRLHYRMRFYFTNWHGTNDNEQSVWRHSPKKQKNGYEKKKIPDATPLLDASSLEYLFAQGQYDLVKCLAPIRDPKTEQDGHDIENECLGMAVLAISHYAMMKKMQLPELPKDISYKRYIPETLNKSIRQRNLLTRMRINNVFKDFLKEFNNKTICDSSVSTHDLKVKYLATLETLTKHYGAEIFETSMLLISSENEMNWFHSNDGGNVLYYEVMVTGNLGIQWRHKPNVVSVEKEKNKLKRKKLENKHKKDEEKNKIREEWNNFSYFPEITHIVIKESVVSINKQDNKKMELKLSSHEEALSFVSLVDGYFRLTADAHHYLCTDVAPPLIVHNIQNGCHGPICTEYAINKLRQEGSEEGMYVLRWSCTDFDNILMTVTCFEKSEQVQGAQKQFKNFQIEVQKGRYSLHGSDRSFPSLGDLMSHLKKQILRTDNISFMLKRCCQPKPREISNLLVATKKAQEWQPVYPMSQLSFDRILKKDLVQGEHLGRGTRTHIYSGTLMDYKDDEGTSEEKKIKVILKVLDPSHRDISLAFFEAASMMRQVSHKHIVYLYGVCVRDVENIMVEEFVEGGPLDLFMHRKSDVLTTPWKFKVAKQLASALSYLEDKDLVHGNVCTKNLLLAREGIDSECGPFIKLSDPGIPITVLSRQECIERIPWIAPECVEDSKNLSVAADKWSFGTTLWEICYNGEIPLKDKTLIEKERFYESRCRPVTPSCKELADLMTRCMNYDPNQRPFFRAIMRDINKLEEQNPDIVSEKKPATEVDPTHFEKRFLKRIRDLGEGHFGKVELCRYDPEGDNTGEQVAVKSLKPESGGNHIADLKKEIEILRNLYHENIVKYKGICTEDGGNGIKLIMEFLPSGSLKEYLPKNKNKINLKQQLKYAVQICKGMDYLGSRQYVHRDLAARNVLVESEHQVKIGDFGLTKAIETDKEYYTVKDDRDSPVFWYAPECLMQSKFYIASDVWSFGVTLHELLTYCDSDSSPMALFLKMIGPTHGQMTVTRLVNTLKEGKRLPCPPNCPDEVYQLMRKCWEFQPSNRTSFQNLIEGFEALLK
# [22] = biological target: JAK2 JH1 catalytic (human) (UniProt O60674)
# [23] = biological target: LTK (human) (UniProt P29376)
# Chain of LTK (human) (P29376 whole entry, looked up): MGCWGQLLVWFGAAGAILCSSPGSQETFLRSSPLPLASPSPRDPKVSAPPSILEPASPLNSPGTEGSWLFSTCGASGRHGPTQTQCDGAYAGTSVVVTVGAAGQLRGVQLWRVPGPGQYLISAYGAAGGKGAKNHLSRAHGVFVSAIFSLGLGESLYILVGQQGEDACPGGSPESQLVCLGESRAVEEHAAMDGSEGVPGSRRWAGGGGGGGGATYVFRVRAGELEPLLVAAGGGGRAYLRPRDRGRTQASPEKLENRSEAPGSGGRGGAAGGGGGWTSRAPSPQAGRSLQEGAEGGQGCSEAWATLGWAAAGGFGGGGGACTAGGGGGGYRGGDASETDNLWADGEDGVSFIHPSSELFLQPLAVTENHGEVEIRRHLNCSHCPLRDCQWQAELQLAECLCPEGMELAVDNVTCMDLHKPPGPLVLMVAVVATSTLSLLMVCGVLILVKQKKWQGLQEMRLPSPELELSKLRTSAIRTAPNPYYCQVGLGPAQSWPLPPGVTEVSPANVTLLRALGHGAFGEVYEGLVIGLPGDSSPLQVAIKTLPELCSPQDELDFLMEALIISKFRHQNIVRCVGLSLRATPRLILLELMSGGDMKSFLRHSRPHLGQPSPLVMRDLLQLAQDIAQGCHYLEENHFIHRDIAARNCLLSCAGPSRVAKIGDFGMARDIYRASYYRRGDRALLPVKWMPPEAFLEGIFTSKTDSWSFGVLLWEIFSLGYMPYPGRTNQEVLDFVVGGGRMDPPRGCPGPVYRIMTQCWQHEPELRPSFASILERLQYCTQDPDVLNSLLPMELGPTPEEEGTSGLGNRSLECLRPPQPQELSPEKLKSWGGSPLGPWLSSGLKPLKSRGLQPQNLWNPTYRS
# [24] = biological target: MAK (human) (UniProt P20794)
# [25] = biological target: MAP2K5 (human) (UniProt Q13163)
# [26] = biological target: MAP3K4 (human) (UniProt Q9Y6R4)
# [27] = biological target: MAPK10 (human) (UniProt P53779)
# Chain of MAPK10 (human) (P53779 whole entry, looked up): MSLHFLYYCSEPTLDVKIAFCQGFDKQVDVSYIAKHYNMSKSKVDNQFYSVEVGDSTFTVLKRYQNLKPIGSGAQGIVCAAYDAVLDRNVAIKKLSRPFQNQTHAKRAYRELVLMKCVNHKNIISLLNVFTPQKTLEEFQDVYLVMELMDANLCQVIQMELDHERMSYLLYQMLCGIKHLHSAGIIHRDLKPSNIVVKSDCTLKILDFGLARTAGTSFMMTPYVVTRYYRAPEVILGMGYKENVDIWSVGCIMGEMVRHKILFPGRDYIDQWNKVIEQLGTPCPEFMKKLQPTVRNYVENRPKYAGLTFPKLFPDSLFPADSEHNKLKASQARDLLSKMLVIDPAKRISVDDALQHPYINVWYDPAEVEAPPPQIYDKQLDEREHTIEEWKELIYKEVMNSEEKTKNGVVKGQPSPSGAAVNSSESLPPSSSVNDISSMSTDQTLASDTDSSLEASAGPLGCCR
# [28] = biological target: MAPK7 (human) (UniProt Q13164)
# [29] = biological target: MYO3A (human) (UniProt Q8NEV4)
# [30] = biological target: NEK7 (human) (UniProt Q8TDX7)
# [31] = biological target: PKN2 (human) (UniProt Q16513)
# [32] = biological target: PLK2 (human) (UniProt Q9NYY3)
# [33] = biological target: PRKCH (human) (UniProt P24723)
# [34] = biological target: PRKG1 (human) (UniProt Q13976)
# [35] = biological target: RPS6KA4 KD2 (human) (UniProt O75676)
# [36] = biological target: RPS6KA6 KD2 (human) (UniProt Q9UK32)
# [37] = biological target: SRMS (human) (UniProt Q9H3Y6)
# [38] = biological target: STK4 (human) (UniProt Q13043)
# [39] = biological target: TEK (human) (UniProt Q02763)
# [40] = biological target: YSK4 (human) (UniProt Q56UN5)
Structure (SMILES),"kinase still bound, per cent of control [1]","kinase still bound, per cent of control [2]","kinase still bound, per cent of control [3]","kinase still bound, per cent of control [4]","kinase still bound, per cent of control [5]","kinase still bound, per cent of control [6]","kinase still bound, per cent of control [7]","kinase still bound, per cent of control [8]","kinase still bound, per cent of control [9]","kinase still bound, per cent of control [10]","kinase still bound, per cent of control [11]","kinase still bound, per cent of control [12]","kinase still bound, per cent of control [13]","kinase still bound, per cent of control [14]","kinase still bound, per cent of control [15]","kinase still bound, per cent of control [16]","kinase still bound, per cent of control [17]","kinase still bound, per cent of control [18]","kinase still bound, per cent of control [19]","kinase still bound, per cent of control [20]",further results
CCCS(=O)(=O)Nc1ccc(F)c(C(=O)c2c[nH]c3ncc(Cl)cc23)c1F,84%,40%,76%,84%,63%,49%,64%,66%,2.7%,80%,52%,100%,14%,40%,76%,100%,36%,34%,91%,89%,"kinase still bound, per cent of control [21]: 77%; kinase still bound, per cent of control [22]: 44%; kinase still bound, per cent of control [23]: 34%; kinase still bound, per cent of control [24]: 71%; kinase still bound, per cent of control [25]: 0.15%; kinase still bound, per cent of control [26]: 92%; kinase still bound, per cent of control [27]: 90%; kinase still bound, per cent of control [28]: 65%; kinase still bound, per cent of control [29]: 35%; kinase still bound, per cent of control [30]: 59%; kinase still bound, per cent of control [31]: 100%; kinase still bound, per cent of control [32]: 83%; kinase still bound, per cent of control [33]: 100%; kinase still bound, per cent of control [34]: 100%; kinase still bound, per cent of control [35]: 69%; kinase still bound, per cent of control [36]: 98%; kinase still bound, per cent of control [37]: 0.05%; kinase still bound, per cent of control [38]: 38%; kinase still bound, per cent of control [39]: 100%; kinase still bound, per cent of control [40]: 29%"
CC1=C(C(=O)Nc2cc3cn[nH]c3cc2F)C(c2ccc(C(F)(F)F)cc2)CC(=O)N1 (stereo not given),70%,84%,81%,100%,94%,94%,78%,87%,100%,92%,65%,67%,100%,100%,75%,89%,75%,86%,77%,99%,"kinase still bound, per cent of control [21]: 28%; kinase still bound, per cent of control [22]: 12%; kinase still bound, per cent of control [23]: 100%; kinase still bound, per cent of control [24]: 100%; kinase still bound, per cent of control [25]: 71%; kinase still bound, per cent of control [26]: 97%; kinase still bound, per cent of control [27]: 88%; kinase still bound, per cent of control [28]: 82%; kinase still bound, per cent of control [29]: 85%; kinase still bound, per cent of control [30]: 78%; kinase still bound, per cent of control [31]: 52%; kinase still bound, per cent of control [32]: 86%; kinase still bound, per cent of control [33]: 35%; kinase still bound, per cent of control [34]: 15%; kinase still bound, per cent of control [35]: 100%; kinase still bound, per cent of control [36]: 85%; kinase still bound, per cent of control [37]: 58%; kinase still bound, per cent of control [38]: 100%; kinase still bound, per cent of control [39]: 83%; kinase still bound, per cent of control [40]: 50%"
CCN1CCN(Cc2ccc(NC(=O)c3ccc(C)c(/C=C/c4cnc5[nH]ccc5c4OC)c3)cc2C(F)(F)F)CC1,26%,4.6%,100%,100%,100%,1.6%,66%,0%,0.75%,100%,93%,0.45%,0.95%,2.2%,77%,99%,74%,5.5%,94%,100%,"kinase still bound, per cent of control [21]: 39%; kinase still bound, per cent of control [22]: 12%; kinase still bound, per cent of control [23]: 62%; kinase still bound, per cent of control [24]: 100%; kinase still bound, per cent of control [25]: 0.2%; kinase still bound, per cent of control [26]: 66%; kinase still bound, per cent of control [27]: 15%; kinase still bound, per cent of control [28]: 73%; kinase still bound, per cent of control [29]: 28%; kinase still bound, per cent of control [30]: 64%; kinase still bound, per cent of control [31]: 26%; kinase still bound, per cent of control [32]: 60%; kinase still bound, per cent of control [33]: 100%; kinase still bound, per cent of control [34]: 100%; kinase still bound, per cent of control [35]: 30%; kinase still bound, per cent of control [36]: 15%; kinase still bound, per cent of control [37]: 0.7%; kinase still bound, per cent of control [38]: 21%; kinase still bound, per cent of control [39]: 0.1%; kinase still bound, per cent of control [40]: 0.2%"
